Reference: PubChem BioAssay (NCI)
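Abbreviation: GI50, concentration required for 50% inhibition of growth. TGI marks complete inhibition of growth.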

Legend:
Assay in all cases: DTP human tumour cell line panel, 384-well format
DU-145 prostate = tested on: DU-145 prostate
EKVX NSCLC = tested on: EKVX NSCLC
HCC-2998 colon = tested on: HCC-2998 colon
LOX IMVI melanoma = tested on: LOX IMVI melanoma
M14 melanoma = tested on: M14 melanoma
MALME-3M melanoma = tested on: MALME-3M melanoma
NCI-H23 lung = tested on: NCI-H23 lung
OVCAR-3 ovarian = tested on: OVCAR-3 ovarian
OVCAR-4 ovarian = tested on: OVCAR-4 ovarian
SF-268 CNS = tested on: SF-268 CNS
T-47D breast = tested on: T-47D breast
TK-10 renal = tested on: TK-10 renal
UACC-257 melanoma = tested on: UACC-257 melanoma

**Q.** With `C[C@@H](Oc1cc(-c2cnn(C3CCNCC3)c2)cnc1N)c1c(Cl)cc(F)cc1Cl` as the molecule, how does the GI50 (DU-145 prostate) read?
**A.** The GI50 was 2090 nM.

**Q.** And the TGI (DU-145 prostate)?
**A.** The TGI was 6.25 µM.

**Q.** And the GI50 (EKVX NSCLC)?
**A.** Its GI50 is 2200 nM.

**Q.** And the TGI (EKVX NSCLC)?
**A.** Its TGI is 6.7 µM.

**Q.** And the GI50 (HCC-2998 colon)?
**A.** The GI50 was 2210 nM.

**Q.** And the TGI (HCC-2998 colon)?
**A.** The TGI was 4.91 µM.

**Q.** What about the GI50 (LOX IMVI melanoma) of the same molecule?
**A.** The GI50 was 1330 nM.

**Q.** And the TGI (LOX IMVI melanoma)?
**A.** Its TGI is 2630 nM.

**Q.** What about the GI50 (M14 melanoma) of the same molecule?
**A.** Its GI50 is 1490 nM.

**Q.** And the TGI (M14 melanoma)?
**A.** Its TGI is 2830 nM.

**Q.** What about the GI50 (MALME-3M melanoma) of the same molecule?
**A.** The GI50 was 1230 nM.

**Q.** What about the TGI (MALME-3M melanoma) of the same molecule?
**A.** The TGI was 2480 nM.

**Q.** What about the GI50 (NCI-H23 lung) of the same molecule?
**A.** Its GI50 is 641 nM.

**Q.** What about the TGI (NCI-H23 lung) of the same molecule?
**A.** The TGI was 2420 nM.

**Q.** What about the GI50 (OVCAR-3 ovarian) of the same molecule?
**A.** Its GI50 is 2540 nM.

**Q.** What about the TGI (OVCAR-3 ovarian) of the same molecule?
**A.** The TGI was 6.47 µM.

**Q.** What about the GI50 (OVCAR-4 ovarian) of the same molecule?
**A.** The GI50 was 5.81 µM.

**Q.** And the TGI (OVCAR-4 ovarian)?
**A.** Its TGI is 11 µM.

**Q.** What about the GI50 (SF-268 CNS) of the same molecule?
**A.** Its GI50 is 2210 nM.

**Q.** And the TGI (SF-268 CNS)?
**A.** Its TGI is 5.32 µM.

**Q.** What about the GI50 (T-47D breast) of the same molecule?
**A.** The GI50 was 2190 nM.

**Q.** What about the TGI (T-47D breast) of the same molecule?
**A.** Its TGI is 6.11 µM.

**Q.** What about the GI50 (TK-10 renal) of the same molecule?
**A.** The GI50 was 3.66 µM.

**Q.** What about the TGI (TK-10 renal) of the same molecule?
**A.** The TGI was 7.63 µM.

**Q.** And the GI50 (UACC-257 melanoma)?
**A.** Its GI50 is 1670 nM.

**Q.** And the TGI (UACC-257 melanoma)?
**A.** Its TGI is 3.04 µM.
